The nature of test [1]: Grip strength of old mice. The following applies: old mouse, farnesol diet 4 months, vs negative control old mouse. It is filed as in vivo. The procedure: 22-month-old female mice (weighing 30 g) are fed with a control diet and a farnesol diet for 4 months. That is, 22-month-old mice are fed for 4 months, and then 26-month-old mice are analyzed. […] The same mouse is used as a control group, except that it is fed with a diet containing no farnesol. Muscle strength, energy expenditure, glucose tolerance, and fat accumulation of each mouse are evaluated. […] To measure grip strength as an index of mouse muscle strength, a grip strength meter (Bioseb) is used. For measurement of grip strength of mouse, its front paws are allowed to grip the grid, and its tail is then pulled back steadily and horizontally. When the animal releases the grid, the value is used as grip strength. The maximal grip strength values of individual mice are measured 5 times, and mean values are obtained. Grip strength is expressed as a force (g, gram) per weight.

A short description of test [2]: Glucose tolerance test of old mice. The test is classed as in vivo. The following applies: old mouse, 1 g/kg glucose i.p. after overnight fast. The procedure:
22-month-old female mice (weighing 30 g) are fed with a control diet and a farnesol diet for 4 months. That is, 22-month-old mice are fed for 4 months, and then 26-month-old mice are analyzed. […] The same mouse is used as a control group, except that it is fed with a diet containing no farnesol. Muscle strength, energy expenditure, glucose tolerance, and fat accumulation of each mouse are evaluated.

Test [3] has as its system fibrosis-related genes Col1 A1, Col A3, TGF-β, Timp2. The test can be described thus: qRT-PCR of fibrosis-related genes in extensor digitorum longus muscles. The test is classed as in vivo, mouse. The following applies: 22-month-old mice, farnesol diet 4 months. The procedure:
In muscle aging, fibrosis is closely related to a reduction in regenerative capacity and a reduction in quality of muscle. 22-month-old female mice (weighing 30 g) are fed with a control diet or a farnesol-containing diet for 4 months. Other feeding conditions are the same as described in Section 2 of Example 1. Thereafter, expressions of fibrosis-related genes, collagen 1 A1 (Col1 A1), collagen A3(Col A3), TGF-β, and Timp2 in extensor digitorum longus muscles are analyzed by qRT-PCR (quantitative Real Time-polymerase chain reaction) (primer sets of SEQ ID NOS: 1 and 2, 3 and 4, 5 and 6, 7 and 8 are used).
Background: In qPCR the cycle at which signal appears reflects the starting amount.

The target in test [4] is T1, human PARIS (WT, C631S) (Homo sapiens, UniProt Q6NUN9).
T1 construct: Human full length PARIS cDNA (IMAGE: 30347892); expressed in transfected cells; host or cells: C2C12 myoblasts, pCMV-Tag2A (Stratagene)
The test can be described thus: Immunoprecipitation of PARIS WT and PARIS C631S mutant in C2C12 myoblasts. The following applies: C2C12 with FLAG-PARIS WT, 0.1 uM farnesol, 24 hours. It is filed as cell-based. The procedure: (§1) To examine whether cysteine residues of CGLS sequence (631-634) of an amino acid sequence (SEQ ID NO: 11) of human PARIS are farnesylation sites, a FLAG-PARIS wild-type (WT) gene or a FLAG-PARIS C631S mutant (hereinafter, referred to as “MT”) gene is introduced into C2C12 myoblasts in the presence of DMSO or 0.1 uM farnesol, and the gene is expressed in C2C12 myoblasts by culturing them in DMEM containing 10% FBS for 24 hours. Immunoprecipitation and promoter activity analysis of a cell lysate are performed. The site of amino acid sequence (SEQ ID NO: 10) of mouse PARIS corresponding to CGLS sequence (631-634) of the amino acid sequence (SEQ ID NO: 11) of human PARIS is residues at positions 638-641. This CGLS sequence is conserved in mammals as well as humans and mice, and thus C of CGLS which is located at the C-terminus is a farnesylation site regardless of the length of the sequence.
(§2) Human full length PARIS cDNA (IMAGE: 30347892; Open Biosystems) (SEQ ID NO: 9) is cloned into BamH1 and EcoR1 restriction sites of a mammalian gene expression vector, pCMV-Tag2A (Stratagene). The pCMV-Tag2A vector is a plasmid-derived mammalian expression vector for tagging proteins with an N-terminal FLAG epitope. A QuikChange site-directed mutagenesis kit (Stratagene) is used to prepare pCMV-PARIS C631S, in which a PARIS C631S gene mutant obtained by substituting serine for the cysteine residue at position 631 of human PARIS is cloned into BamHI and EcoRI restriction sites of pCMV-Tag2A (Stratagene). After preparation of the mutant gene, the gene is introduced into pCMV to prepare an overexpression vector. To prepare the PARIS C631S gene, a pair of primers (SEQ ID NOS: 12 and 13) is used. Thereafter, a nucleotide sequence of the PARIS C631S gene thus prepared is confirmed by automated DNA sequencing.
(§3) In the case of PARIS C631S mutant, no farnesylation occurs. […] In FIG. 5C, − represents C2C12 myoblasts introduced with no PARIS gene, and WT and MT represent C2C12 myoblasts introduced with the wild-type PARIS gene and the mutant PARIS gene, that is, PARIS C631S gene, respectively. […]

The target in test [5] is T2, human PARIS (WT, C631S) (Homo sapiens, UniProt Q6NUN9, C631S).
T2 construct: Human full length PARIS cDNA (IMAGE: 30347892); expressed in transfected cells; host or cells: C2C12 myoblasts, pCMV-Tag2A (Stratagene)
The test is described as above. The test is classed as cell-based. The note with it: C2C12 with FLAG-PARIS C631S, 0.1 uM farnesol, 24 hours. The procedure:
as §1, §2, §3

T1 sequence (Q6NUN9 whole entry C631S): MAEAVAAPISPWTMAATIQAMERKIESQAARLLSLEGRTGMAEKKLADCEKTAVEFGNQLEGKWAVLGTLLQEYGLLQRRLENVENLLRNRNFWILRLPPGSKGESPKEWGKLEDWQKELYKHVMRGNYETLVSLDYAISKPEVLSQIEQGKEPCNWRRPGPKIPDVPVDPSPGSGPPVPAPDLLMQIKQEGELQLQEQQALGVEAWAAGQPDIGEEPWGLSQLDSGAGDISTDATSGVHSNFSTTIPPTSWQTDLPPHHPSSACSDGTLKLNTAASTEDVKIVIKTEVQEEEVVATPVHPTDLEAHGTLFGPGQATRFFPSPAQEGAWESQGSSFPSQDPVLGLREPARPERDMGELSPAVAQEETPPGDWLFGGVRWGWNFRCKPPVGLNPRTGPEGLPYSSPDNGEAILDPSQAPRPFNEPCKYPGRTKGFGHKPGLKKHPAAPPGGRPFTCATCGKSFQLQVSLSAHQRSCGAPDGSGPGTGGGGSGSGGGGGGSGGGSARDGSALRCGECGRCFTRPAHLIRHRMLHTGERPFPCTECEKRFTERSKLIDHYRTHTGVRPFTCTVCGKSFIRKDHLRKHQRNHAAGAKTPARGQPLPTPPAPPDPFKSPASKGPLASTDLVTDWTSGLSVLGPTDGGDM
T2 sequence (Q6NUN9 whole entry C631S): as above

For `CC(C)=CCC/C(C)=C/CC/C(C)=C/CO` [farnesol, (2E,6E)-3,7,11-trimethyldodeca-2,6,10-trien-1-ol], in test [1], the grip strength entry is given as “significantly increased”. Moreover, the “blood glucose level in glucose tolerance test” value in test [2] is “remarkably low”. Moreover, in test [3], the “expressions of fibrosis-related genes in EDL” value is listed as “remarkably reduced”. At human PARIS (WT, C631S) [4], the “PGC-1α level, PARIS WT” value is “PGC-1α increase” and the “farnesylation of PARIS WT” value is recorded as “increased”. In addition, at human PARIS (WT, C631S) [5], the “PGC-1α level, PARIS C631S mutant” value is reported as “does not affect”.

Values taken from patent US10780061B2, “Composition comprising farnesol and use thereof” (Daegu Gyongbuk Institute of Science and Technology, priority 2014, dated 2020).
